These results are taken from US20200308170A1, “KRAS G12C INHIBITORS” (Mirati Therapeutics, Inc., priority 2017, published 2020).

This assay concerns the target T1, KRas G12C (Homo sapiens, UniProt P01116, C118S/C51S/C80L/G12C).
T1 construct: GDP-loaded K-Ras (1-169) G12C, C51S, C80L, C118S
Description: KRas G12C Modification Assay (LCMS detection of covalent adduct). The class given is binding. Conditions: 5 μM concentration for 3 hours; LC/MS of intact protein; higher POC = higher degree of modification.
On to `C=C(F)C(=O)N1CCN(c2nc(OC[C@@H]3CCCN3C)nc3c2CCN(c2cccc4cccc(C)c24)C3)C[C@@H]1CC#N` [Example 36, 2-((S)-1-(2-fluoroacryloyl)-4-(7-(8-methylnaphthalen-1-yl)-2-(((S)-1-methylpyrrolidin-2-yl)methoxy)-5,6,7,8-tetrahydropyrido[3,4-d]pyrimidin-4-yl)piperazin-2-yl)acetonitrile], for which the “POC (normalized percent of control; degree of covalent modification of KRas G12C)” value is “C (“C”>50% POC)”.
With `Cc1cccc2cccc(N3CCc4c(nc(OC[C@@H]5CCCN5C)nc4N4CCN(C(=O)/C=C\C#N)[C@@H](CC#N)C4)C3)c12` [Example 31, (Z)-4-((S)-2-(cyanomethyl)-4-(7-(8-methylnaphthalen-1-yl)-2-(((S)-1-methylpyrrolidin-2-yl)methoxy)-5,6,7,8-tetrahydropyrido[3,4-d]pyrimidin-4-yl)piperazin-1-yl)-4-oxobut-2-enenitrile], the “POC (normalized percent of control; degree of covalent modification of KRas G12C)” value is given as “C (“C”>50% POC)”.
With `C=C(F)C(=O)N1CCN(c2nc(OC[C@@H]3CCCN3C)nc3c2CCN(c2cccc(C)c2C)C3)C[C@@H]1CC#N` [Example 1, 2-[(2S)-4-[7-(2,3-dimethylphenyl)-2-[[(2S)-1-methylpyrrolidin-2-yl]methoxy]-6,8-dihydro-5H-pyrido[3,4-d]pyrimidin-4-yl]-1-(2-fluoroprop-2-enoyl)piperazin-2-yl]acetonitrile], the “POC (normalized percent of control; degree of covalent modification of KRas G12C)” value is “C (“C”>50% POC)”.
In the case of `[2H]C([2H])=C([2H])C(=O)N1CCN(c2nc(OC[C@@H]3CCCN3C)nc3c2CCN(c2cccc4ccccc24)C3)C[C@@H]1CC#N` [Example 4, 2-[(2S)-4-[2-[[(2S)-1-methylpyrrolidin-2-yl]methoxy]-7-(1-naphthyl)-6,8-dihydro-5H-pyrido[3,4-d]pyrimidin-4-yl]-1-(2,3,3-trideuterioprop-2-enoyl)piperazin-2-yl]acetonitrile], the “POC (normalized percent of control; degree of covalent modification of KRas G12C)” value is reported as “C (“C”>50% POC)”.
Take `CN1CCC[C@H]1COc1nc2c(c(N3CCN(C(=O)/C=C/CO)[C@@H](CC#N)C3)n1)CCN(c1cccc3cccc(Cl)c13)C2` [Example 42, 2-[(2S)-4-[7-(8-chloro-1-naphthyl)-2-[[(2S)-1-methylpyrrolidin-2-yl]methoxy]-6,8-dihydro-5H-pyrido[3,4-d]pyrimidin-4-yl]-1-[(E)-4-hydroxybut-2-enoyl]piperazin-2-yl]acetonitrile]: the “POC (normalized percent of control; degree of covalent modification of KRas G12C)” value is “C (“C”>50% POC)”.
